Test [1] has as its system Neisseria meningitidis. Briefly: Antibacterial activity against penicillin-intermediate resistant Neisseria meningitidis clinical isolates harbouring altered penA gene after 24 hrs by Etest method. Type of test: functional.
Test [2] deals with Neisseria meningitidis. Briefly: Antibacterial activity against penicillin-intermediate resistant Neisseria meningitidis after 24 hrs by Etest method. Type of test: functional.

In brackets after ≈: the same amount, converted by molar mass. A value given as a limit tells only on which side of the number the result lay.

In turn, `CC1(C)S[C@@H]2[C@H](NC(=O)[C@H](N)c3ccccc3)C(=O)N2[C@H]1C(=O)O` [AMPICILLIN] had a minimal inhibitory concentration (MIC) against Neisseria meningitidis [1] of more than 0.064 µg/mL. `CO/N=C(\C(=O)N[C@@H]1C(=O)N2C(C(=O)O)=C(COC(C)=O)CS[C@H]12)c1csc(N)n1` [CEFOTAXIME] gave an MIC in the test with Neisseria meningitidis [1] not above 0.012 µg/mL. With `CC1(C)S[C@@H]2[C@H](NC(=O)Cc3ccccc3)C(=O)N2[C@H]1C(=O)O` [PENICILLIN G], the results for the minimum inhibitory concentration (MIC) in the test with Neisseria meningitidis [2] and in the test with Neisseria meningitidis [1] were 0.064 µg/mL (≈ 0.191 µM) and more than 0.094 µg/mL, respectively.

Broadly, the MIC is the lowest concentration found to suppress growth. Low readings indicate inhibition by little substance, high ones a need for much substance.
